# US20200039939A1, “QUINOLINE AMINES USEFUL AS CYTOPROTECTIVE AGENTS” (priority 2015, published 2020)
# Key:
# Human SH-SY5Y cells = assay: Cell rescue assay: protection against amyloid (AB1-42)-induced cell toxicity; assay type: cell-based; conditions: 96 h, 7.5 uM compound (final), AB1-42 at 10 uM, 4 days, OD 490 nm, read-out: Cell Survival % (cell rescue)
# Description: Protection against 1-amyloid-induced cell toxicity. Chonpathompikunlert et al. Eu. J. Pharmacol. 2011, 650, 544-549. Human SH-SY5Y cells are suspended in media containing 2% FBS and 2× Gentamicin. Transfer 100 ul/well culture to 96-well plate (20,000 cells/well; passage #5) and incubate overnight. Prepare compound samples at 30 uM. Add 50 ul of the samples to the cells [[…]] and incubate 3 hours. Make stock of 40 uM AB1-42 peptide in assay media. Transfer 50 ul/well to cells/compounds in assay plate. The final assay volume is 200 ul/well, containing 2% FBS, 2× Gentamicin, 7.5 uM compound and AB1-42 at 10 uM. Incubate for 4 days then add 20 ul of Promega Substrate Cell Titer 96 Aqueous One Solution Reagent to each well. Incubate 37° C. and read OD at 490 nm. The results are summarized in Table 3, where A represents a value greater than 40% cell rescue, B represents a value greater than 10% and less than or equal to 40% cell rescue, and C represents a value greater than 1% and less than or equal to 10% cell rescue.
# Ob/ob mice = assay: Effect of a SERCA agonist on the level of blood glucose; assay type: in vivo; conditions: Mus musculus, ip, 96 h, 50 mg/kg i.p. once a day for 5 days, fasting glucose at baseline and 4 days after administration, read-out: Glucose level reduction
# Description: Ob/ob mice (10 weeks old, n=7) were intraperitoneally (i.p.) injected with 100 μL of a solution containing 0 (vehicle) or 50 mg/kg of a test compound once a day for a total of 5 days. Fasting glucose was measured at baseline and 4 days after the administration of the test compound. Glucose levels were measured in blood samples drawn from the tail vein using a handheld glucose sensor. Compound effects on blood glucose are shown in Table 5 where A represents a 10-20% reduction in blood glucose, B represents a 21-30% reduction in blood glucose, and C represents a greater than 30% reduction in blood glucose levels.
# [1] = test system: Human embryonic kidney (HEK293) cells / mouse neuroblastoma (N2a) cells; assay: Cell rescue assay: protection against thapsigargin (TG)-induced cell-death (ALAMARBLUE); assay type: cell-based; conditions: compound 20 μM, 2 hrs before thapsigargin (15 μM HEK293, 1 μM N2a), 24 hrs, viability as % RFU of control, read-out: Cell Survival %
# Description: Protection against Thapsigargin (TG)-induced Cell-death. Human embryonic kidney (HEK293) cells were grown in Dulbecco's Modified Eagle's Medium (DMEM) with 10% FBS and 1% antibiotic antimycotic solution (ABAM). Mouse neuroblastoma (N2a) cells were grown in 1:1 DMEM:OPTI-MEM® with 5% FBS and 1% ABAM. All cells were grown in 10% CO2 in a humidified environment of the incubator. Cells grown in 96-well plates were exposed to a test compound (20 μM) for 2 hrs before addition of thapsigargin (15 μM for HEK293 cells and 1 μM for N2a cells) to induce ER stress. After incubation in cell-culture incubator for 24 hrs, ALAMARBLUE® regent (10% v/v) was added to the wells. Fluorescence reading was taken 2 hrs after the addition of the ALAMARBLUE® regent. Cell-viability was calculated as a percentage of relative fluorescence unit (RFU) compared to control. […] The biological results are summarized in Table 2, where each compound was tested at 20 μM and where A represents a viability greater than 50%, B represents a viability greater than 10% and less than 50%, C represents a value below 10%.
# CSM14.1 neuronal cells = assay: Cell survival assay (thapsigargin-treated CSM14.1 neuronal cells, CELLTITER-GLO); assay type: cell-based; conditions: 2 hrs compound pre-incubation, about 15 μM thapsigargin, overnight, luminescence
# Description: CSM14.1 neuronal cells were maintained in Complete Medium at 32° C.; wherein the Complete Medium contained Dulbecco's modified eagle medium (DMEM) with 10% fetal bovine serum (FSB), 1% L-glutamine, 100 IU/mL penicillin, and 100 μg/mL streptomycin. The cells were recovered from cultures by trypsinization and then seeded in 384 well plates (Greiner #781098) at a concentration of 1,000 cells/well in 20 μL of DMEM Assay Medium, wherein the DMEM Assay Medium contained 2% FBS, 100 IU/mL penicillin, and 100 μg/mL streptomycin. Seeding was performed using a MultiDrop Combi reagent broadcaster. The plates were incubated overnight at 32° C. A test compound was prepared by 2-fold serial dilution in 100% DMSO using a BIOMEK® 2000 liquid handler (Beckman Coulter). A dose-response curve containing 10 concentrations of the test compound was obtained. Using a BIOMEK® FX liquid handler (Beckman Coulter), 2.5 μL of the test compound was transferred from the 100% DMSO serial dilution plate to an intermediate plate containing 47.5 μL of DMEM Assay Medium containing 2% FBS, 100 IU/mL penicillin, and 100 μg/mL streptomycin and mixed. To reduce or eliminate the interference from the compound's precipitation, 6 μL of the diluted compound was immediately transferred to the assay plate to achieve a high compound concentration of 100 µM in 99% DMEM Assay Medium and 1% DMSO. After the assay plates were incubated for 2 hrs, 4 μL of 112.5 μM thapsigargin (TG) (DMSO stock diluted into Assay TC Medium) was dispensed into each testing well with a MultiDrop Combi reagent broadcaster for a final concentration of about 15 μM TG. The tissue culture media (4 μL) containing vehicle only was transferred manually to each control cell using a 16 channel electronic pipette. After the plates were incubated overnight (about 16 to 24 hrs), CELLTITER-GLO® (Promega) (16 μL) was added to all wells and luminescence was measured. High luminescence indicates cell survival. The biological results are summarized in Table 1 where A represents a cell viability EC50 less than 10 μM and B represents a value greater than 10 μM and less than 20 μM.
# SERCA = target: T1, SERCA (Homo sapiens, UniProt P16615); assay: Ca-ATPase assay (NADH-linked, enzyme-coupled ATPase assay); assay type: biochemical; conditions: microsomal preparations from HEK 293 cells, Vmax from Hill fit of ATPase calcium-dependence, relative to controls
# T1 construct: microsomal preparations from HEK 293 cells; endogenous in cells; host or cells: HEK 293 cells (microsomal preparation)
# T1 sequence (P16615 whole entry): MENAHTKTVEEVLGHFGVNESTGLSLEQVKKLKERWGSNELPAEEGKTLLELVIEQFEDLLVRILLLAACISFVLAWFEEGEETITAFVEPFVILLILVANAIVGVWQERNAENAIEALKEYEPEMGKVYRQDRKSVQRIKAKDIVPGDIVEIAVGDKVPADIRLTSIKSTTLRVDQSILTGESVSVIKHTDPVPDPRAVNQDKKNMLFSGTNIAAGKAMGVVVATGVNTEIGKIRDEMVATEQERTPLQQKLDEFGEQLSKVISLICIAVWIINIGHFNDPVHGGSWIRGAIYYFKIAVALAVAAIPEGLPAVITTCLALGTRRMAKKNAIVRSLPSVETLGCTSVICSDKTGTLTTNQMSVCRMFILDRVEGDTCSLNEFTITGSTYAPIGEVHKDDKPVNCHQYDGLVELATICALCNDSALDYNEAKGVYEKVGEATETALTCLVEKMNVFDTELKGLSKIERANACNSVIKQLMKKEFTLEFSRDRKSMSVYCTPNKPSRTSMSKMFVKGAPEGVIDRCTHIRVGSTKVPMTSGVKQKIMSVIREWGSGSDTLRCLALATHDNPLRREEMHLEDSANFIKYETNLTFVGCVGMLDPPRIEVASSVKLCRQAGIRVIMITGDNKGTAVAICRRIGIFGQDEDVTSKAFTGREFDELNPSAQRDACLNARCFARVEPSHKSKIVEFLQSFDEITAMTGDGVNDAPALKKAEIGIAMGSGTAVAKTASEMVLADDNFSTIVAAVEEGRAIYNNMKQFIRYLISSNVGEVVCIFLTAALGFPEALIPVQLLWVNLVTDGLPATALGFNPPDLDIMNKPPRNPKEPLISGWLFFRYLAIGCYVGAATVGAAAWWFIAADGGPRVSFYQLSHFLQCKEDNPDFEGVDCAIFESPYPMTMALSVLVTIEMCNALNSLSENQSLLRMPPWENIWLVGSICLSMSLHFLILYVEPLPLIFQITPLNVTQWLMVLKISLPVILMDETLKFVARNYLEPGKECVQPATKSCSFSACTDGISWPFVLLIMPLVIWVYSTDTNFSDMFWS
# Description: A Ca-ATPase assay was performed using microsomal preparations from HEK 293 cells at a series of calcium concentrations corresponding to the physiological range, relative to controls. The ATP hydrolysis rate was measured over a range of calcium concentrations in the presence of test compounds using an NADH-linked, enzyme-coupled ATPase assay adapted for 96-well microplates, with Vmax determined by fitting the ATPase calcium-dependence to the Hill function. Each well contained 2 μg or 7 μg of SR vesicles (optimized for skeletal or cardiac SR, respectively), 50 mM MOPS (pH 7.0), 100 mM KCl, 5 mM MgCl2, 1 mM EGTA, 0.2 mM NADH, 1 mM phosphoenol pyruvate, 5 IU pyruvate kinase, 5 IU lactate dehydrogenase, and 3.5 μg/mL A23187 (a calcium ionophore). CaCl2 was added to set free [Ca^2+] to the specific values. The assay was started upon addition of ATP at a final concentration of 5 mM, and read in a SpectraMax Plus microplate spectrophotometer. The results are summarized in Table 4, where A represents an increase in SERCA Vmax greater than or equal to 50% and B represents a value greater than 10% and less than 50%.
SMILES,viability at 7.5 µM (Human SH-SY5Y cells),inhibition in vivo at 50 mg/kg (Ob/ob mice),viability at 20 µM [1],EC50 (CSM14.1 neuronal cells),SERCA Vmax Increase (SERCA)
"Cc1ccc2cccc(NCc3cc(Br)cs3)c2n1 [C2, N-((4-Bromothiophen-2-yl)methyl)-2-methylquinolin-8-amine]",10 to 40%,21 to 30%,10 to 50%,< 10 µM,B (B represents a value greater than 10% and less than 50%)
"Cc1ccc2cccc(NCc3ccc(OC(C)C)cc3)c2n1 [C1, N-(4-Isopropoxybenzyl)-2-methylquinolin-8-amine]",> 40%,> 30%,> 50%,< 10 µM,B (B represents a value greater than 10% and less than 50%)
"Cc1ccc2cccc(NCc3ccc(C)o3)c2n1 [C9, N-((5-Methylfuran-2-yl)methyl)-2-methylquinolin-8-amine]",1 to 10%,21 to 30%,< 10%,10 to 20 µM,B (B represents a value greater than 10% and less than 50%)
"Cc1ccc2cccc(NCc3cc4ccccc4s3)c2n1 [C10, N-(Benzo[b]thiophen-2-ylmethyl)-2-methylquinolin-8-amine]",10 to 40%,21 to 30%,10 to 50%,10 to 20 µM,B (B represents a value greater than 10% and less than 50%)
"Cc1ccc2cccc(NCc3ccc(Br)s3)c2n1 [C3, N-((5-Bromothiophen-2-yl)methyl)-2-methylquinolin-8-amine]",> 40%,21 to 30%,> 50%,< 10 µM,B (B represents a value greater than 10% and less than 50%)
"Cc1ccc2cccc(NCc3ccc(C(F)(F)F)cc3)c2n1 [C6, N-(4-Trifluoromethylbenzyl)-2-methylquinolin-8-amine]",> 40%,10 to 20%,> 50%,< 10 µM,B (B represents a value greater than 10% and less than 50%)
"Cc1ccc2cccc(NCc3ccc(Cl)cc3)c2n1 [C4, N-(4-Chlorobenzyl)-2-methylquinolin-8-amine]",> 40%,10 to 20%,> 50%,< 10 µM,A (A represents an increase in SERCA Vmax greater than or equal to 50%)
"COc1c(C)cccc1CNc1cccc2ccc(C)nc12 [C5, N-(2-Methoxy-3-methyl)-2-methylquinolin-8-amine]",1 to 10%,21 to 30%,10 to 50%,10 to 20 µM,A (A represents an increase in SERCA Vmax greater than or equal to 50%)
"Cc1ccc2cccc(NCc3ccc(C)s3)c2n1 [C8, N-((5-Methylthiophen-2-yl)methyl)-2-methylquinolin-8-amine]",> 40%,> 30%,10 to 50%,< 10 µM,B (B represents a value greater than 10% and less than 50%)
"Cc1ccc2cccc(NCc3ccc(C#N)cc3)c2n1 [C7, N-(4-Cyanobenzyl)-2-methylquinolin-8-amine]",10 to 40%,10 to 20%,< 10%,10 to 20 µM,B (B represents a value greater than 10% and less than 50%)
